Seven molecules from PubChem BioAssay (NCI) can be followed below.

Among the test systems are MDA-MB-231 breast; HOP-62 NSCLC; OVCAR-4 ovarian; HT29 colon; MALME-3M melanoma; NCI-H23 lung; OVCAR-8 ovarian; UACC-62 melanoma; K-562 leukemia; HL-60(TB) leukemia.
What all share (assay): NCI-60 cell line screen, 48 h

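Values below derive from 48-hour exposures of cells grown in 96-well plates, with endpoints linearly interpolated between the two concentrations bracketing the appropriate inhibition level. At the GI50, growth is halved. TGI: concentration producing complete growth inhibition.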 Where a SMILES comes first, the peptide text is derived from it. [ ]: non-standard residue; d: D form. NMeY = CN[C@@H](Cc1ccc(O)cc1)C(=O)O; dNMeF = CN[C@H](Cc1ccccc1)C(=O)O; Sar = CNCC(=O)O

In the case of `Cc1ccc(N=Nc2c(N)nn(-c3ccccc3)c2N)cc1`, the GI50 in the assay with MDA-MB-231 breast is 7.41 µM; in the assay on HOP-62 NSCLC it was 2490 nM; with OVCAR-4 ovarian, > 40700 nM; in the assay on HT29 colon, 353 nM; in the assay on NCI-H23 lung it was 2290 nM; in the assay on OVCAR-8 ovarian, 4270 nM. The GI50 is 874 nM in the assay with UACC-62 melanoma, 256 nM in the assay with K-562 leukemia and 638 nM in the assay on HL-60(TB) leukemia. The TGI is > 100 µM in the assay on MDA-MB-231 breast; > 100 µM in the assay on OVCAR-4 ovarian; > 100 µM in the assay on MALME-3M melanoma; > 100 µM in the assay with OVCAR-8 ovarian; > 100 µM in the assay with UACC-62 melanoma; > 21.6 µM in the assay on HL-60(TB) leukemia.
As for `CC[C@H](C)[C@@H]1NC(=O)[C@H](Cc2ccc(O)cc2)N(C)C(=O)[C@H](Cc2ccccc2)NC(=O)CN(C)C(=O)[C@@H]2CCCN2C(=O)[C@@H](Cc2ccccc2)N(C)C(=O)[C@H](CC(C)C)NC1=O` (cyclo(F[NMeY]IL[dNMeF]P[Sar])), the GI50 in the assay on MDA-MB-231 breast was 0.331 µM; with HOP-62 NSCLC it was 296 nM; in the assay with OVCAR-4 ovarian, 306 nM; in the assay with HT29 colon it was 243 nM; in the assay with MALME-3M melanoma it was 164 nM; in the assay on NCI-H23 lung, 197 nM. Further, the GI50 with OVCAR-8 ovarian was 352 nM; with UACC-62 melanoma it was 367 nM; with K-562 leukemia it was 262 nM; in the assay on HL-60(TB) leukemia, 605 nM. For the same molecule, the TGI turned out to be 4.28 µM in the assay with MDA-MB-231 breast; 5.84 µM in the assay on HOP-62 NSCLC; 3.99 µM in the assay with OVCAR-4 ovarian; 7.2 µM in the assay with HT29 colon; 1.81 µM in the assay on MALME-3M melanoma; 5.95 µM in the assay on NCI-H23 lung. Moreover, the TGI is 12.8 µM in the assay on OVCAR-8 ovarian, 2.75 µM in the assay on UACC-62 melanoma, 31.4 µM with K-562 leukemia and 3.3 µM in the assay on HL-60(TB) leukemia.
Turning to `CCOC(=O)Cn1c(C)c(/C=N/NC(=O)c2cc3c(ccc4ccccc43)o2)c2ccccc21`, the GI50 in the assay on MDA-MB-231 breast is 0.702 µM; in the assay on HOP-62 NSCLC it was 554 nM; in the assay with OVCAR-4 ovarian it was 1360 nM; in the assay with HT29 colon, 355 nM; in the assay with MALME-3M melanoma, 575 nM; with NCI-H23 lung, 669 nM. Also, the GI50 in the assay with OVCAR-8 ovarian was 486 nM; with UACC-62 melanoma, 300 nM; in the assay on K-562 leukemia, 342 nM; in the assay on HL-60(TB) leukemia it was 345 nM. Besides, the TGI with MDA-MB-231 breast is 3.33 µM; with HOP-62 NSCLC it was 4.79 µM; in the assay on OVCAR-4 ovarian it was 9.27 µM; with HT29 colon, 1.9 µM; in the assay on MALME-3M melanoma, 3.22 µM; with NCI-H23 lung, 6.91 µM. In addition, the TGI was 11 µM in the assay with UACC-62 melanoma, > 100 µM with K-562 leukemia and 7.83 µM in the assay with HL-60(TB) leukemia.
As to `COc1cccc(-n2ncc3c(N/N=C/c4ccc(S(C)(=O)=O)cc4)ncnc32)c1`, the GI50 was 9.09 µM in the assay on MDA-MB-231 breast; 5850 nM in the assay with HOP-62 NSCLC; 13100 nM in the assay with OVCAR-4 ovarian; 3490 nM in the assay with HT29 colon; 4210 nM in the assay with MALME-3M melanoma; 11900 nM with NCI-H23 lung. In addition, the GI50 with OVCAR-8 ovarian was 6110 nM; in the assay on UACC-62 melanoma, 3470 nM; with K-562 leukemia, > 6650 nM; in the assay with HL-60(TB) leukemia, > 25000 nM. The TGI in the assay on MDA-MB-231 breast was > 24.1 µM; in the assay on HOP-62 NSCLC it was 11.5 µM; in the assay with OVCAR-4 ovarian it was > 25 µM; in the assay with HT29 colon, 10.5 µM; with MALME-3M melanoma, > 25 µM; in the assay with NCI-H23 lung, > 25 µM. Also, the TGI in the assay with OVCAR-8 ovarian is 15.6 µM; in the assay with UACC-62 melanoma, > 16.9 µM; in the assay on K-562 leukemia, > 25 µM; in the assay with HL-60(TB) leukemia, > 25 µM.
As for `COc1ccc2c(c1)sc1nc(-c3ccccc3)c(-c3ccc(O)c(OC)c3)n12`, the GI50 with MDA-MB-231 breast is 9.8 µM; with HOP-62 NSCLC, 37800 nM; with OVCAR-4 ovarian it was 39100 nM; in the assay with HT29 colon, 3560 nM; with MALME-3M melanoma, > 100000 nM; in the assay with NCI-H23 lung, 95500 nM. In addition, the GI50 in the assay with OVCAR-8 ovarian is 41200 nM; in the assay on UACC-62 melanoma, 8290 nM; with K-562 leukemia, 4530 nM; with HL-60(TB) leukemia, 5330 nM. Besides, the TGI in the assay on MDA-MB-231 breast, in the assay with HOP-62 NSCLC, in the assay with OVCAR-4 ovarian, with HT29 colon, with MALME-3M melanoma and in the assay with NCI-H23 lung was > 100 µM each time. Moreover, the TGI with OVCAR-8 ovarian, with UACC-62 melanoma, with K-562 leukemia and in the assay with HL-60(TB) leukemia was > 100 µM in each case.
As to `CN(C)C(=O)c1cc2cnc(Nc3ccc(-c4csc5c(=O)cc(N6CCNCC6)oc45)cc3)nc2n1C1CCCC1`, the GI50 with MDA-MB-231 breast was 0.71 µM; in the assay on HOP-62 NSCLC it was 1030 nM; in the assay on OVCAR-4 ovarian it was 1340 nM; in the assay with HT29 colon it was 438 nM; in the assay on MALME-3M melanoma, 1380 nM; in the assay with NCI-H23 lung, 995 nM. In addition, the GI50 in the assay with OVCAR-8 ovarian was 1210 nM; with UACC-62 melanoma it was 1440 nM; in the assay on K-562 leukemia, 456 nM; in the assay on HL-60(TB) leukemia, 271 nM. Further, the TGI with MDA-MB-231 breast was 2.24 µM; in the assay on HOP-62 NSCLC, 10.6 µM; in the assay on OVCAR-4 ovarian it was 5.73 µM; with HT29 colon it was 2.99 µM; in the assay on MALME-3M melanoma, 2.94 µM; with NCI-H23 lung, 2.93 µM. Moreover, the TGI in the assay on OVCAR-8 ovarian was > 42.5 µM; with UACC-62 melanoma, 8.69 µM; in the assay with K-562 leukemia, 4.2 µM; with HL-60(TB) leukemia, 1.72 µM.
On to `Cc1cc2c3ccccc3ccc2[n+]2ccccc12`, for which the GI50 in the assay with MDA-MB-231 breast is 18.5 µM; in the assay on HOP-62 NSCLC it was 2580 nM; in the assay with OVCAR-4 ovarian, 2880 nM; in the assay on HT29 colon, 9190 nM; with MALME-3M melanoma, 657 nM; in the assay on NCI-H23 lung, 2570 nM. Also, the GI50 was 2430 nM in the assay with OVCAR-8 ovarian, 6000 nM in the assay on UACC-62 melanoma, 4320 nM in the assay with K-562 leukemia and 14300 nM in the assay with HL-60(TB) leukemia. The TGI in the assay on MDA-MB-231 breast was > 100 µM; in the assay on HOP-62 NSCLC it was 11.7 µM; in the assay with OVCAR-4 ovarian, 14.8 µM; in the assay on HT29 colon, 41.1 µM; with MALME-3M melanoma, 3.45 µM; with NCI-H23 lung, 19.3 µM. In addition, the TGI came out at 21.9 µM with OVCAR-8 ovarian, 20.4 µM in the assay with UACC-62 melanoma, 32.8 µM in the assay on K-562 leukemia and 46.3 µM in the assay with HL-60(TB) leukemia.
